# According to article PMC11435058, “Synthesis of New Thiazole-Privileged Chalcones as Tubulin Polymerization Inhibitors with Potential Anticancer Activities” (Pharmaceuticals, 2024):
# Assays:
# LOX IMVI = test: NCI-60 anticancer screen (SRB; single dose and five doses); conditions: Homo sapiens; for activity at 10 µM: 48 h, read-out: Growth Percentage; for CC50: read-out: LC50; for IC (TGI): read-out: TGI
# HCC-2998 = test: as above; conditions: for activity at 10 µM / GI50 / CC50: Homo sapiens; for activity at 10 µM: HCC 2998, 48 h, read-out: Growth Percentage; for GI50: HCC 2998; for CC50: HCC 2998, read-out: LC50; for TGI: five-dose, Colon Cancer HCC-2998
# UO-31 = test: as above; conditions: Homo sapiens; for activity at 10 µM: UO-31, 48 h, read-out: Growth Percentage; for IC (TGI): UO-31, read-out: TGI
# HCT-15 = test: as above; conditions: Homo sapiens; for activity at 10 µM: HCT-15, 48 h, read-out: Growth Percentage; for CC50: HCT-15, read-out: LC50; for IC (TGI): HCT-15, read-out: TGI
# UACC-257 = test: as above; conditions: Homo sapiens; for activity at 10 µM: UACC-257, 48 h, read-out: Growth Percentage; for CC50: UACC-257, read-out: LC50; for IC (TGI): UACC-257, read-out: TGI
# HCT-116 = test: as above; conditions: Homo sapiens; for activity at 10 µM: HCT-116, 48 h, read-out: Growth Percentage; for CC50: HCT-116, read-out: LC50; for IC (TGI): HCT-116, read-out: TGI
# OVCAR-8 = test: as above; conditions: Homo sapiens; for activity at 10 µM: OVCAR-8, 48 h, read-out: Growth Percentage; for CC50: OVCAR-8, read-out: LC50; for IC (TGI): OVCAR-8, read-out: TGI
structure (smiles),measurement,setting,value
"Cc1[nH]c(=S)sc1C(=O)/C=C/c1ccccc1Cl [2d, (E)-3-(2-Chlorophenyl)-1-(4-Methyl-2-Thioxo-2,3-Dihydrothiazol-5-yl)Prop-2-En-1-One]",activity at 10 µM,LOX IMVI,57.5%
same,activity at 10 µM,HCC-2998,132%
same,activity at 10 µM,UO-31,73.7%
same,activity at 10 µM,HCT-15,57.4%
same,activity at 10 µM,UACC-257,87.2%
same,activity at 10 µM,HCT-116,44.6%
same,activity at 10 µM,OVCAR-8,85.4%
same,melting point,,240 to 242 °C
"Cc1[nH]c(=S)sc1C(=O)/C=C/c1ccccc1 [2a, (E)-1-(4-Methyl-2-Thioxo-2,3-Dihydrothiazol-5-yl)-3-Phenylprop-2-En-1-One]",activity at 10 µM,LOX IMVI,31.1%
same,activity at 10 µM,HCC-2998,91.3%
same,activity at 10 µM,UO-31,39.3%
same,activity at 10 µM,HCT-15,35%
same,activity at 10 µM,UACC-257,76.2%
same,activity at 10 µM,HCT-116,49.4%
same,activity at 10 µM,OVCAR-8,65.8%
same,melting point,,245 to 247 °C
"COc1ccc(/C=C/C(=O)c2sc(=S)[nH]c2C)cc1 [2l, (E)-3-(4-Methoxyphenyl)-1-(4-Methyl-2-Thioxo-2,3-Dihydrothiazol-5-yl)Prop-2-En-1-One]",activity at 10 µM,LOX IMVI,44.2%
same,activity at 10 µM,HCC-2998,101%
same,activity at 10 µM,UO-31,49%
same,activity at 10 µM,HCT-15,50.8%
same,activity at 10 µM,UACC-257,68%
same,activity at 10 µM,HCT-116,76%
same,activity at 10 µM,OVCAR-8,76.9%
same,melting point,,246 to 248 °C
"Cc1[nH]c(=S)sc1C(=O)/C=C/c1ccc(N(C)C)cc1 [2k, (E)-3-(4-(Dimethylamino)Phenyl)-1-(4-Methyl-2-Thioxo-2,3-Dihydrothiazol-5-yl)Prop-2-En-1-One]",activity at 10 µM,LOX IMVI,60.2%
same,activity at 10 µM,HCC-2998,95.3%
same,activity at 10 µM,UO-31,48.3%
same,activity at 10 µM,HCT-15,64.4%
same,activity at 10 µM,UACC-257,64.1%
same,activity at 10 µM,HCT-116,72.2%
same,activity at 10 µM,OVCAR-8,83.4%
same,melting point,,249 to 251 °C
"COc1ccc(/C=C/C(=O)c2sc(=S)[nH]c2C)c(OC)c1 [2n, (E)-3-(2,4-Dimethoxyphenyl)-1-(4-Methyl-2-Thioxo-2,3-Dihydrothiazol-5-yl)Prop-2-En-1-One]",activity at 10 µM,LOX IMVI,57.8%
same,activity at 10 µM,HCC-2998,80.7%
same,activity at 10 µM,HCT-15,45.8%
same,activity at 10 µM,UACC-257,84.4%
same,activity at 10 µM,HCT-116,62.3%
same,activity at 10 µM,OVCAR-8,81.5%
same,melting point,,255 to 257 °C
"Cc1[nH]c(=S)sc1C(=O)/C=C/c1ccc([N+](=O)[O-])cc1 [2i, (E)-1-(4-Methyl-2-Thioxo-2,3-Dihydrothiazol-5-yl)-3-(4-Nitrophenyl)Prop-2-En-1-One]",GI50,LOX IMVI,1.85 µM
same,activity at 10 µM,LOX IMVI,-86.2%
same,CC50,LOX IMVI,8.91 µM
same,IC (TGI),LOX IMVI,4.06 µM
same,GI50,HCC-2998,9.37 µM
same,activity at 10 µM,HCC-2998,-11.9%
same,CC50,HCC-2998,47 µM
same,TGI,HCC-2998,21.5 µM
same,GI50,UO-31; UO-31,4.86 µM
same,activity at 10 µM,UO-31,-41.3%
same,IC (TGI),UO-31,18.8 µM
same,GI50,HCT-15; HCT-15,2.46 µM
same,activity at 10 µM,HCT-15,-62.1%
same,CC50,HCT-15,33.7 µM
same,IC (TGI),HCT-15,7.86 µM
same,GI50,UACC-257; UACC-257,15.1 µM
same,activity at 10 µM,UACC-257,63.3%
same,CC50,UACC-257,61.4 µM
same,IC (TGI),UACC-257,30.4 µM
same,GI50,HCT-116; HCT-116,2.78 µM
same,activity at 10 µM,HCT-116,-47.8%
same,CC50,HCT-116,44.3 µM
same,IC (TGI),HCT-116,7.89 µM
same,GI50,OVCAR-8; OVCAR-8,7.73 µM
same,activity at 10 µM,OVCAR-8,7.06%
same,CC50,OVCAR-8,65.2 µM
same,IC (TGI),OVCAR-8,23.9 µM
"Cc1[nH]c(=S)sc1C(=O)/C=C/c1ccc(Cl)cc1 [2f, (E)-3-(4-Chlorophenyl)-1-(4-Methyl-2-Thioxo-2,3-Dihydrothiazol-5-yl)Prop-2-En-1-One]",GI50,LOX IMVI,3.39 µM
same,IC50,LOX IMVI,4.47 µM
same,activity at 10 µM,LOX IMVI,-48.1%
same,CC50,LOX IMVI,38 µM
same,IC (TGI),LOX IMVI,12 µM
same,activity at 10 µM,HCC-2998,-21.3%
same,GI50,UO-31; UO-31,4.07 µM
same,IC50,UO-31; UO-31,11.2 µM
same,activity at 10 µM,UO-31,30.4%
same,IC (TGI),UO-31,18.2 µM
same,GI50,HCT-15; HCT-15,4.07 µM
same,IC50,HCT-15; HCT-15,5.37 µM
same,activity at 10 µM,HCT-15,-19.8%
same,CC50,HCT-15,49 µM
same,IC (TGI),HCT-15,16.6 µM
same,GI50,UACC-257; UACC-257,13.8 µM
same,IC50,UACC-257; UACC-257,26.9 µM
same,activity at 10 µM,UACC-257,66.8%
same,CC50,UACC-257,56.2 µM
same,IC (TGI),UACC-257,27.5 µM
same,GI50,HCT-116; HCT-116,6.61 µM
same,IC50,HCT-116; HCT-116,7.94 µM
same,activity at 10 µM,HCT-116,6.98%
same,CC50,HCT-116,74.1 µM
same,IC (TGI),HCT-116,24.6 µM
same,GI50,OVCAR-8; OVCAR-8,8.51 µM
same,IC50,OVCAR-8; OVCAR-8,14.5 µM
same,activity at 10 µM,OVCAR-8,4.96%
same,CC50,OVCAR-8,55 µM
same,IC (TGI),OVCAR-8,22.9 µM
"Cc1[nH]c(=S)sc1C(=O)/C=C/c1ccc(F)cc1 [2c, (E)-3-(4-Fluorophenyl)-1-(4-Methyl-2-Thioxo-2,3-Dihydrothiazol-5-yl)Prop-2-En-1-One]",GI50,LOX IMVI,3.26 µM
same,activity at 10 µM,LOX IMVI,8.91%
same,CC50,LOX IMVI,36.6 µM
same,IC (TGI),LOX IMVI,12.7 µM
same,GI50,HCC-2998,3.46 µM
same,activity at 10 µM,HCC-2998,27.1%
same,CC50,HCC-2998,36.5 µM
same,TGI,HCC-2998,13.2 µM
same,GI50,UO-31; UO-31,2.88 µM
same,activity at 10 µM,UO-31,28.1%
same,IC (TGI),UO-31,15.7 µM
same,GI50,HCT-15; HCT-15,3.27 µM
same,activity at 10 µM,HCT-15,14.7%
same,CC50,HCT-15,43.7 µM
same,IC (TGI),HCT-15,14.2 µM
same,GI50,UACC-257; UACC-257,12.6 µM
same,activity at 10 µM,UACC-257,64.1%
same,CC50,UACC-257,56.6 µM
same,IC (TGI),UACC-257,26.7 µM
same,GI50,HCT-116; HCT-116,3.99 µM
same,activity at 10 µM,HCT-116,23.7%
same,CC50,HCT-116,42.5 µM
same,IC (TGI),HCT-116,15.2 µM
same,GI50,OVCAR-8; OVCAR-8,3.99 µM
same,activity at 10 µM,OVCAR-8,-13.6%
same,CC50,OVCAR-8,50.9 µM
same,IC (TGI),OVCAR-8,16.2 µM
"Cc1ccc(/C=C/C(=O)c2sc(=S)[nH]c2C)cc1 [2j, (E)-1-(4-Methyl-2-Thioxo-2,3-Dihydrothiazol-5-yl)-3-(p-Tolyl)Prop-2-En-1-One]",activity at 10 µM,LOX IMVI,31.2%
same,activity at 10 µM,HCC-2998,77.2%
same,activity at 10 µM,UO-31,46.8%
same,activity at 10 µM,HCT-15,38.6%
same,activity at 10 µM,UACC-257,80.1%
same,activity at 10 µM,HCT-116,46.7%
same,activity at 10 µM,OVCAR-8,17.3%
same,melting point,,241 to 243 °C
"COc1cccc(/C=C/C(=O)c2sc(=S)[nH]c2C)c1OC [2m, (E)-3-(2,3-Dimethoxyphenyl)-1-(4-Methyl-2-Thioxo-2,3-Dihydrothiazol-5-yl)Prop-2-En-1-One]",activity at 10 µM,LOX IMVI,21.7%
same,activity at 10 µM,HCC-2998,79.8%
same,activity at 10 µM,UO-31,53.7%
same,activity at 10 µM,HCT-15,32.7%
same,activity at 10 µM,UACC-257,35.4%
same,activity at 10 µM,HCT-116,46.5%
same,activity at 10 µM,OVCAR-8,44.6%
same,melting point,,239 to 240 °C
"Cc1[nH]c(=S)sc1C(=O)/C=C/c1cccc(F)c1 [2b, (E)-3-(3-Fluorophenyl)-1-(4-Methyl-2-Thioxo-2,3-Dihydrothiazol-5-yl)Prop-2-En-1-One]",activity at 10 µM,LOX IMVI,13.8%
same,activity at 10 µM,HCC-2998,58.2%
same,activity at 10 µM,UO-31,44.3%
same,activity at 10 µM,HCT-15,19.1%
same,activity at 10 µM,UACC-257,83.7%
same,activity at 10 µM,HCT-116,21.2%
same,activity at 10 µM,OVCAR-8,60.5%
same,melting point,,234 to 236 °C
"COc1ccc(/C=C/C(=O)c2sc(=S)[nH]c2C)cc1OC [2o, (E)-3-(3,4-Dimethoxyphenyl)-1-(4-Methyl-2-Thioxo-2,3-Dihydrothiazol-5-yl)Prop-2-En-1-One]",activity at 10 µM,LOX IMVI,26.9%
same,activity at 10 µM,HCC-2998,41.7%
same,activity at 10 µM,UO-31,49.2%
same,activity at 10 µM,HCT-15,31.3%
same,activity at 10 µM,UACC-257,71.4%
same,activity at 10 µM,HCT-116,34.5%
same,activity at 10 µM,OVCAR-8,34.3%
same,melting point,,245 to 247 °C
